# Measured values reported in US9783518B2, “Therapeutic agent and treatment method for ameliorating uremia” (Toray Industries, Inc., priority 2005, dated 2017).
# Columns and labels:
# [1] = tested on: healthy cats; experiment: Observation of general clinical symptoms (adverse events) after administration of beraprost sodium to healthy cats; assay type: in vivo, cat; set-up: key to grade of adverse events (diarrhea, vomiting, sedation) / grade of adverse events (vomiting, diarrhea, sedation): no abnormality observed (Grade 0); slight (Grade 1); moderate (Grade 2); severe (Grade 3); conditions: for adverse events (clinical symptoms): 5 healthy cats
# Description: (§1) In this study, 3 male cats and 2 female cats, totally 5 Japanese cats, aging 3 to 6 years old were used, which were raised in an animal hospital and for which no abnormalities were observed clinically and by blood test. The subject cats were individually placed in each cage in which each cat was allowed to take water ad libitum, and each cat was fed twice a day after measuring the necessary items. For the purpose of acclimatization, the cats were measured for blood pressure noninvasively twice a day for 2 weeks.
# Observations of general clinical symptoms caused by administration of beraprost sodium to healthy cats were performed as follows: Whether adverse events such as ataxia, sedation, lying, suffusion of visible mucosa, lacrimation, hypersalivation, vomiting, diarrhea, incontinence and change in respiratory conditions were expressed or not was observed. Observation was performed before administration, and 30 minutes, 1 hour, 2 hours and 3 hours after each administration during the continuous 7 days in which the drug was administered every day. Each evaluation was performed by rating in 4 ranks as follows: Respiratory conditions were ranked into: no abnormality observed (Grade 0); accelerated respiration (Grade 1); hypopnea (Grade 2); and dyspnea (Grade 3). Ataxia was ranked into: no abnormality observed (Grade 0); slight (Grade 1); moderate (Grade 2); and abasia (Grade 3). Sedation (response to verbal contact) and lying (response to verbal contact) were ranked into: no abnormality observed (Grade 0); slight (Grade 1); moderate (Grade 2); and no response (Grade 3). Evaluations of lacrimation, hypersalivation, vomiting, diarrhea and incontinence were ranked into: no abnormality observed (Grade 0); slight (Grade 1); moderate (Grade 2); and severe (Grade 3).
# (§2) In each administration series, the same cat was used in each administration series as the subject cat for the correctness of the evaluation of the test drug. To eliminate the influence of the test drug of the previous series, wash out period of 2 weeks were given after the termination of the respective series. In the beraprost sodium administration series and the placebo administration series, the solution-containing capsules prepared in Example 2 were used. Administration was performed orally at fasting twice a day at intervals of 12 hours for continuous 7 days.
# (§3) Statistical analysis was carried out using a statistical software Stat View J-4.5 (Abacus Concepts). Since the parameter values before and after the administration to the same individual are compared, significant test was carried out by the paired t-test. In any of the cases, when the significance level was less than 5%, it was judged as significant.
# [2] = tested on: healthy cats; experiment: Blood pressure and heart rate (oscillometric) in healthy cats; assay type: in vivo, cat
# Description: as §1
# Blood pressure and heart rate were measured as follows: These were noninvasively measured oscillometrically by using Life Scope 9 produced by NIHON KOHDEN. Systolic pressure, diastolic pressure and heart rate were measured 5 times each before the administration of beraprost sodium and 30 minutes, 1 hour, 2 hours and 3 hours after administration of beraprost sodium at the right foreleg of each cat. From the 5 measured values, the maximum and minimum values were excluded, and the average of the remaining 3 measured values was adopted as the measured value of the individual at the time point. The measurements were carried out every time for 7 days, and the responses by the respective administrations had about the same pattern. In the Example, the results (FIGS. 1 and 2) at the first administration of beraprost sodium are shown as a representative.
# as §2, §3
# [3] = tested on: cats with chronic renal failure; experiment: Clinical score of uremic symptoms (activity + appetite) in cats with chronic renal failure; assay type: in vivo, cat; conditions: Case-G; 40 μg/head/BID; Day 14, kept up to Day 56; 3 points before
# [4] = tested on: immune complex-induced glomerulonephritis mouse NZB/WF1; conditions: administered before onset; cited from earlier work
# [5] = tested on: patients with diabetic nephropathy; conditions: cited from earlier work
# [6] = first administration, 10-100 μg/kg oral
smiles,measurement,setting,value
"CC#CC[C@@H](C)[C@H](O)/C=C/[C@@H]1[C@H]2c3cccc(CCCC(=O)[O-])c3O[C@H]2C[C@H]1O.[Na+] (mixture of isomers) [beraprost sodium, Sodium rac-(1R,2R,3aS,8bS)-2,3,3a,8b-tetrahydro-2-hydroxy-1-[(E)-(3S,4RS)-3-hydroxy-4-methyloct-1-en-6-ynyl]-1H-cyclopenta[b][1]benzofuran-5-butanoate]",adverse events (clinical symptoms),"[1]; 10 μg/kg/BID oral, 7 days",not observed at all
same,adverse events (clinical symptoms),"[1]; 30 μg/kg/BID oral, 7 days",not observed at all
same,"grade of adverse events (diarrhea, vomiting, sedation)","[1]; 70 μg/kg/BID oral, 7 days",Grade 1
same,"cases with adverse events such as diarrhea, vomiting and sedation","[1]; 70 μg/kg/BID oral, 7 days, sporadic, 2 to 6 days after administration",2/5
same,time of occurrence of adverse events after the administration,[1]; 100 μg/kg/BID oral,≤ 2 h
same,"grade of adverse events (vomiting, diarrhea, sedation)","[1]; 100 μg/kg/BID oral, 7 days",Grade 2
same,"cats with vomiting, diarrhea and sedation","[1]; 100 μg/kg/BID oral, 7 days, from Day 2, frequent",all cats
same,reversibility of adverse events,"[1]; 70 and 100 μg/kg/BID series, after 7 days",disappeared by the next day of the final administration
same,maximum change in heart rate (increase),"[2]; 100 μg/kg oral, 30 minutes after administration",about 25%
same,time to restoration of heart rate to the level before administration,[2]; any dose (10-100 μg/kg oral),≤ 2 h
same,diastolic pressure,[2]; [6],No significant change
same,pulse pressure,[2]; [6],No significant change
same,systolic pressure,[2]; [6],No significant change
same,change in heart rate,"[2]; from 30 μg/kg/BID oral, 30 minutes to 1 hour after administration, not at 10 μg/kg/BID",significant (p<0.05) dose-dependent increase
same,clinical score (full points 5),[3],5 points
same,onset of glomerulonephritis (index: urinary excretion of albumin),[4],can be inhibited
same,urinary microalbumin,[5],decreased
